Patent publication US4904673A, “Agent for treating bradycardia and bradyarrhythmia” (Dr. Karl Thomae, GmbH, priority 1988, dated 1990)

Tests used:
[1] = target: muscarinic receptors in cerebral cortex; experiment: Receptor binding test in vitro, 3H-NMS displacement, cerebral cortex homogenate; conditions: rat cerebral cortex homogenate 1:3000; 0.3 nanomolar 3H-NMS; 30° C., 45 minutes; read-out: Receptor Binding Tests IC50 Cortex
Procedure: The organs were donated by male Sprague-Dawley rats weighing 180-220 g. After the heart and subman-dibular gland and cerebral cortex had been removed, all other steps were carried out in ice cold Hepes HCl buffer (pH 7.4; 100 millimolar NaCl, 10 millimolar MgCl2). The whole heart was cut up with scissors. All the organs were then homogenised in a Potter apparatus.
(§1) For the binding test the homogenised organs were diluted as follows:
The homogenised organs were incubated at a certain concentration of the radioligand and at a series of concentrations of the non-radioactive test substances in an Eppendorf centrifuge tube at 30° C. Incubation lasted 45 minutes. The radioligand used was 0.3 nanomolar ^3 H-N-methylscopolamine (^3 H-NMS). Incubation was ended by the addition of ice cold buffer followed by vaccum filtration. The filters were rinsed with cold buffer and their radioactivity was determined. It represents the sum of specific and non-specific binding of ^3 H-NMS.
The proportion of non-specific binding was defined as the radioactivity which was bound in the presence of 1 micromolar quinuclidinyl-benzylate. Each measurement was taken four times. The IC^50 values of the non-labelled test substances were determined graphically. They represent that concentration of test substance at which the specific binding of ^3 H-NMS to the muscarinic receptors in the various organs was inhibited by 50%.

[2] = target: T1, muscarinic receptors in submandibular gland (Rattus norvegicus, UniProt P08483); experiment: Receptor binding test in vitro, 3H-NMS displacement, submandibular gland homogenate; conditions: rat submandibular gland homogenate 1:400; 0.3 nanomolar 3H-NMS; 30° C., 45 minutes; read-out: Receptor Binding Tests IC50 Submandibular gland
T1 construct: All the organs were then homogenised in a Potter apparatus; from tissue; host or cells: submandibular gland of male Sprague-Dawley rats, homogenate diluted 1:400
T1 sequence (P08483 whole entry): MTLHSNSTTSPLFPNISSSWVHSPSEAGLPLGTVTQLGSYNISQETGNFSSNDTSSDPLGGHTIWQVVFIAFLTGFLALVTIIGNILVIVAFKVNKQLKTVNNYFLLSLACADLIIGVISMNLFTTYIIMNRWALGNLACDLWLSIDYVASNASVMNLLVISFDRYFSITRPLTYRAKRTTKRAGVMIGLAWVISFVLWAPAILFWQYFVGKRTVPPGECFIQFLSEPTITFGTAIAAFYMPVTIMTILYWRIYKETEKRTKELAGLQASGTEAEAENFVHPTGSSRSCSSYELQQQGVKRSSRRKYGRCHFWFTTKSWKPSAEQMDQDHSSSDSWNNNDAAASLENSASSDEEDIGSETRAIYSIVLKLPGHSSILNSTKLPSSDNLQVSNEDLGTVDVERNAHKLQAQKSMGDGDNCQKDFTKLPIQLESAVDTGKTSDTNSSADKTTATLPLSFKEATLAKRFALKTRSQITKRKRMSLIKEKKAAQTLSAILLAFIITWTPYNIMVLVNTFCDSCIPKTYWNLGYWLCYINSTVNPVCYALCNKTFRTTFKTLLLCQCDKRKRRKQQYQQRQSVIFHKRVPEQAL
Procedure: (§2) The organs were donated by male Sprague-Dawley rats weighing 180-220 g. […] The whole heart was cut up with scissors. All the organs were then homogenised in a Potter apparatus.
as §1
Submandibular gland 1:400
(§3) Incubation lasted 45 minutes. The radioligand used was 0.3 nanomolar ^3 H-N-methylscopolamine (^3 H-NMS). […] The filters were rinsed with cold buffer and their radioactivity was determined. It represents the sum of specific and non-specific binding of ^3 H-NMS.
(§4) Each measurement was taken four times. […] They represent that concentration of test substance at which the specific binding of ^3 H-NMS to the muscarinic receptors in the various organs was inhibited by 50%.

[3] = test system: acetylcholine effect on heart rate; experiment: Inhibition of the effect of acetylcholine on heart rate in anaesthetised guinea pigs; assay type: in vivo, guinea pig; conditions: Cavia porcellus, iv, 5 min, 10 microgram/kg acetylcholine i.v. and intra-arterially 5 minutes after test substance, heart rate by ECG, read-out: -log ED50 Heart (converted)
Procedure: (§5) Substances with antimuscarinic properties inhibit the effects of agonists supplied exogenically or of acetylcholine, which is released from cholinergic nerve endings. The following is a description of an "in vivo" method which is suitable for the detection of cardioselective antimuscarinic agents.
(§6) Inhibition of the effect of acetylcholine on the bladder, bronchi and heart rate in guinea pigs
(§7) 5 minutes after the administration of the test substance, 10 microgram/kg of acetylcholine were simultaneously injected intravenously and intra-arterially into anaesthetised guinea pigs. The heart rate was recorded directly by extracorporeal derivation of the ECG, as were the expiration resistance according to Konzett-Rossler and the contraction of the exposed bladder. In order to determine the inhibition of the acetylcholine activity on the organs under investigation, dosage/activity curves were recorded and from them -log ED50 values were determined. For the results see Table II.

[4] = target: T2, muscarinic receptors in heart (Rattus norvegicus, UniProt P10980); experiment: Receptor binding test in vitro, 3H-NMS displacement, whole heart homogenate; conditions: rat whole heart homogenate 1:400; 0.3 nanomolar 3H-NMS; 30° C., 45 minutes; read-out: Receptor Binding Tests IC50 Heart
T2 construct: The whole heart was cut up with scissors; from tissue; host or cells: whole heart of male Sprague-Dawley rats, homogenate diluted 1:400
T2 sequence (P10980 1-466): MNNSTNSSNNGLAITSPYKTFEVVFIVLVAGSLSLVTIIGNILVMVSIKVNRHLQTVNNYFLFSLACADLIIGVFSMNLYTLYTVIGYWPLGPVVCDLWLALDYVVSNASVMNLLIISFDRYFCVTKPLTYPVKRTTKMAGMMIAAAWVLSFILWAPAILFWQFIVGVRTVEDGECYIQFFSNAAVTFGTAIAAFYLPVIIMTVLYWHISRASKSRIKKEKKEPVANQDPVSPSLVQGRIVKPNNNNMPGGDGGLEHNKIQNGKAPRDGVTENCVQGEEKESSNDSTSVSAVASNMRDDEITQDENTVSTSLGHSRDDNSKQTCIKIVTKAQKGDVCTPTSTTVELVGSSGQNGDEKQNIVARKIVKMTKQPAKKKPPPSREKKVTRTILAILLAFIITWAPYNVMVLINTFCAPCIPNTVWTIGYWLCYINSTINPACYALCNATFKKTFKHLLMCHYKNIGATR
Procedure: as §2, §1, §3, §4

[5] = test system: acetylcholine effect on bronchi; experiment: Inhibition of the effect of acetylcholine on bronchi (expiration resistance, Konzett-Rossler) in anaesthetised guinea pigs; assay type: in vivo, guinea pig; conditions: Cavia porcellus, iv, 5 min, 10 microgram/kg acetylcholine i.v. and intra-arterially 5 minutes after test substance, read-out: -log ED50 Bronchi (converted)
Procedure: as §5, §6, §7

[6] = test system: acetylcholine effect on bladder; experiment: Inhibition of the effect of acetylcholine on contraction of the exposed bladder in anaesthetised guinea pigs; assay type: in vivo, guinea pig; conditions: Cavia porcellus, iv, 5 min, 10 microgram/kg acetylcholine i.v. and intra-arterially 5 minutes after test substance, read-out: -log ED50 Bladder (converted)
Procedure: as §5, §6, §7

SMILES | IC50 [1] [nM] | IC50 [2] [nM] | ED50 [3] [µmol/kg] | IC50 [4] [nM] | ED50 [5] [µmol/kg] | ED50 [6] [µmol/kg]
CN1[C@@H]2CC[C@H]1C[C@@H](OC(=O)C(CO)c1ccccc1)C2 (stereo partly shown) [B, atropine, reference compound] | 2 | – | – | – | – | –
CCN(CCCC(=O)N1CCC(C(=O)N(C)C)CC1)C(C)Cc1ccc(OC)cc1 (racemic) [A, (±)-1-[4-[ethyl[2-(4-methoxyphenyl)-1-methylethyl]amino]-1-oxobutyl]-N,N-dimethyl-4-piperidine carboxamide] | 50 | 300 | 0.0646 | 10 | 0.148 | 0.513
